{"source": "ChEMBL document CHEMBL4507260", "about": "(2021)", "conditions_in_all_cases": "Compound concentration 1000.0 nM", "key": {"[1]": {"molecular_target": "TGF-beta receptor type-1 (Homo sapiens) (UniProt P36897)"}, "[2]": {"molecular_target": "BMP-2-inducible protein kinase (Homo sapiens) (UniProt Q9NSY1)"}, "[3]": {"molecular_target": "Tyrosine-protein kinase Fyn (Homo sapiens) (UniProt P06241)"}, "[4]": {"molecular_target": "Casein kinase I isoform alpha (Homo sapiens) (UniProt P48729)"}, "[5]": {"molecular_target": "Homeodomain-interacting protein kinase 4 (Homo sapiens) (UniProt Q8NE63)"}, "[6]": {"molecular_target": "Vascular endothelial growth factor receptor 1 (Homo sapiens) (UniProt P17948)"}, "[7]": {"molecular_target": "Cyclin-dependent kinase 17 (Homo sapiens) (UniProt Q00537)"}, "[8]": {"test_system": "Tyrosine-protein kinase ABL1 (Homo sapiens), P00519 [F317L]"}, "[9]": {"molecular_target": "Rho-associated protein kinase 1 (Homo sapiens) (UniProt Q13464)"}, "[10]": {"molecular_target": "Ephrin type-A receptor 1 (Homo sapiens) (UniProt P21709)"}, "[11]": {"molecular_target": "Ephrin type-A receptor 6 (Homo sapiens) (UniProt Q9UF33)"}, "[12]": {"molecular_target": "Dual specificity protein kinase CLK3 (Homo sapiens) (UniProt P49761)"}, "[13]": {"molecular_target": "Death-associated protein kinase 1 (Homo sapiens) (UniProt P53355)"}, "[14]": {"molecular_target": "Phosphatidylinositol 4,5-bisphosphate 3-kinase catalytic subunit alpha isoform (Homo sapiens) (UniProt P42336)"}, "[15]": {"molecular_target": "Ephrin type-A receptor 7 (Homo sapiens) (UniProt Q15375)", "sequence (Q15375 28-998 limits assumed)": "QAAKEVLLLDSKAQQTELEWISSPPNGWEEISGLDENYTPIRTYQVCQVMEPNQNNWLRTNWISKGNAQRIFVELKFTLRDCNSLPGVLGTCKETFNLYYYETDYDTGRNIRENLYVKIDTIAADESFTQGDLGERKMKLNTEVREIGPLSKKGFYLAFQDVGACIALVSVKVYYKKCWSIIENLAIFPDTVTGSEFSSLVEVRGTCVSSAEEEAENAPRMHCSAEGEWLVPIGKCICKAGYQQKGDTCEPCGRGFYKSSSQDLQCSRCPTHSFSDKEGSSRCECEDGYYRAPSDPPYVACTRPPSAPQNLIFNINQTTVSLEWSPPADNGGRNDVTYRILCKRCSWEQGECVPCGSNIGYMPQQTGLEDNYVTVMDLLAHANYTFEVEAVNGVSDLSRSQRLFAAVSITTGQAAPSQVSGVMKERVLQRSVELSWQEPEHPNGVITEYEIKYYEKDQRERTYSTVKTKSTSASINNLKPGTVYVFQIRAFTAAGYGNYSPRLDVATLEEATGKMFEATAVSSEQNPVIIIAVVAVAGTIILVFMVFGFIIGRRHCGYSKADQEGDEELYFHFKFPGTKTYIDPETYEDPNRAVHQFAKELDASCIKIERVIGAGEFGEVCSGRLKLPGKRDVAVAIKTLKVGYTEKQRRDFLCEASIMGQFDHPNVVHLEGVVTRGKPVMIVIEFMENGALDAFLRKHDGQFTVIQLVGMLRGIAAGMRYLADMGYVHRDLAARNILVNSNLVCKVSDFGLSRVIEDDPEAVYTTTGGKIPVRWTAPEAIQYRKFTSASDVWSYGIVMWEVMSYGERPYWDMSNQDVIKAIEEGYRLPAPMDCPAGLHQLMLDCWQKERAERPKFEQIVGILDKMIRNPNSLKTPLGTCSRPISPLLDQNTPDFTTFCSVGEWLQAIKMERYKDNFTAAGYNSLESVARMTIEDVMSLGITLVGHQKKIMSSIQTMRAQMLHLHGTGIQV"}, "[16]": {"molecular_target": "Aurora kinase B (Homo sapiens) (UniProt Q96GD4)"}, "[17]": {"test_system": "Mast/stem cell growth factor receptor Kit (Homo sapiens), P10721 [A829P]", "sequence (P10721 whole entry A829P)": "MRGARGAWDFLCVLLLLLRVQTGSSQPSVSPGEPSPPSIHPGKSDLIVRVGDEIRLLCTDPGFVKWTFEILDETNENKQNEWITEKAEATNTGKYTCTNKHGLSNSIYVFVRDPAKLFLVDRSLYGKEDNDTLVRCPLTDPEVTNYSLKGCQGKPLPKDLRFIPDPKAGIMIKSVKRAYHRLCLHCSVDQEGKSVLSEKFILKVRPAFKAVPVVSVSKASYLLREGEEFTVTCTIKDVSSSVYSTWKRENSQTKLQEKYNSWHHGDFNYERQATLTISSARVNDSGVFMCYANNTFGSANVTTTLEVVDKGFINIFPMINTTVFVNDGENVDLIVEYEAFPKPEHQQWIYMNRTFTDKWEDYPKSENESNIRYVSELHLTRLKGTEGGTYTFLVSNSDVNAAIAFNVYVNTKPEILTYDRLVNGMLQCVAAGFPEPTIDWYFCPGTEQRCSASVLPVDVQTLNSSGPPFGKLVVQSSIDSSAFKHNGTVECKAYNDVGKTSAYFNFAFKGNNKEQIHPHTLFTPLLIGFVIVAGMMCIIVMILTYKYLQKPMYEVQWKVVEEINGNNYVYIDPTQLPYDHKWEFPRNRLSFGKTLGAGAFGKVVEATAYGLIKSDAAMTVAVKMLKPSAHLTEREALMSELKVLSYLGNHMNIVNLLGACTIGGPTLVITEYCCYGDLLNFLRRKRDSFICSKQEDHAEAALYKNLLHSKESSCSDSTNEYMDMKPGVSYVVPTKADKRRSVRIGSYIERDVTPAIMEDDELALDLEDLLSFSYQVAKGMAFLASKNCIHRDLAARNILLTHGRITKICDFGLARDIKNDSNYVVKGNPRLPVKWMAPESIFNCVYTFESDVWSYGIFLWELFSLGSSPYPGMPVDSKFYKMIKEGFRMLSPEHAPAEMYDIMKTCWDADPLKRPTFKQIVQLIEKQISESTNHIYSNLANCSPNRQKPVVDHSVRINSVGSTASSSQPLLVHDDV"}, "[18]": {"molecular_target": "Rhodopsin kinase GRK1 (Homo sapiens) (UniProt Q15835)"}, "[19]": {"molecular_target": "Serine/threonine-protein kinase BRSK2 (Homo sapiens) (UniProt Q8IWQ3)"}, "[20]": {"molecular_target": "Receptor-interacting serine/threonine-protein kinase 4 (Homo sapiens) (UniProt P57078)"}, "[21]": {"molecular_target": "Casein kinase II subunit alpha (Homo sapiens) (UniProt P68400)"}, "[22]": {"molecular_target": "Mitogen-activated protein kinase 9 (Homo sapiens) (UniProt P45984)"}, "[23]": {"molecular_target": "Serine/threonine-protein kinase pim-1 (Homo sapiens) (UniProt P11309)"}, "[24]": {"molecular_target": "Tyrosine-protein kinase JAK3 (Homo sapiens) (UniProt P52333)", "sequence (P52333 whole entry)": "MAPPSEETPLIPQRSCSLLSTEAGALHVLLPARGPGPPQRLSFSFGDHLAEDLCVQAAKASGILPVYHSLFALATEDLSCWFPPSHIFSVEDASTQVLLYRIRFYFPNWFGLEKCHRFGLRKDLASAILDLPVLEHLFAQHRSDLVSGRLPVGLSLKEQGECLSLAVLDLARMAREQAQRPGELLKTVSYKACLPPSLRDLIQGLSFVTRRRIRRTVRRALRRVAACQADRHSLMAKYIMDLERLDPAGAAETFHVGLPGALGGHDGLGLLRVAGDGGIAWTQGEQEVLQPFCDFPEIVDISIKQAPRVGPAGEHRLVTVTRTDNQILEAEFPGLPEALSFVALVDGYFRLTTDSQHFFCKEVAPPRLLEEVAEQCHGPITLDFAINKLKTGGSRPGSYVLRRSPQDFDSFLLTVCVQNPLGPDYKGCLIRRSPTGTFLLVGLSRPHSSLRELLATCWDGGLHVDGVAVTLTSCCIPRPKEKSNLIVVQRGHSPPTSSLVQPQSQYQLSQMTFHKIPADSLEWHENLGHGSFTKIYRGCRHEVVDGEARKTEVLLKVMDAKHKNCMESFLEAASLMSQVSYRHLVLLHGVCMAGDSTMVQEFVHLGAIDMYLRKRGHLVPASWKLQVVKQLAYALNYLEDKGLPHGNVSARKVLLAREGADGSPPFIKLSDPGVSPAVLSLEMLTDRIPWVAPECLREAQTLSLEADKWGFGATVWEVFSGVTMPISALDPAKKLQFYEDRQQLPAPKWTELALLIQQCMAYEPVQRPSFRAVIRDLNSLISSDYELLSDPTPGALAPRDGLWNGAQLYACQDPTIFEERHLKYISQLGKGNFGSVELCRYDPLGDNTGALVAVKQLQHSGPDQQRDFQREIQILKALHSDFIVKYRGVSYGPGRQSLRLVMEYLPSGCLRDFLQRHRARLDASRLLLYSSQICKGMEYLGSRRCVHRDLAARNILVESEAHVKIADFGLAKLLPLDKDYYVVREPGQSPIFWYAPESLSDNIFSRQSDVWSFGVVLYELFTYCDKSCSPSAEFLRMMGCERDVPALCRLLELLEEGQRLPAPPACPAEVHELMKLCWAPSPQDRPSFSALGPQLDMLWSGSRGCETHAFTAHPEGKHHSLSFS"}, "[25]": {"molecular_target": "Calcium/calmodulin-dependent protein kinase type II subunit gamma (Homo sapiens) (UniProt Q13555)"}, "[26]": {"molecular_target": "Bone morphogenetic protein receptor type-2 (Homo sapiens) (UniProt Q13873)"}, "[27]": {"molecular_target": "Epithelial discoidin domain-containing receptor 1 (Homo sapiens) (UniProt Q08345)"}, "[28]": {"molecular_target": "Serine/threonine-protein kinase PLK3 (Homo sapiens) (UniProt Q9H4B4)"}, "[29]": {"molecular_target": "ALK tyrosine kinase receptor (Homo sapiens) (UniProt Q9UM73)"}, "[30]": {"molecular_target": "Tyrosine-protein kinase Fgr (Homo sapiens) (UniProt P09769)"}, "[31]": {"molecular_target": "SRSF protein kinase 1 (Homo sapiens) (UniProt Q96SB4)"}, "[32]": {"molecular_target": "Cyclin-dependent kinase 4 (Homo sapiens) (UniProt P11802)", "sequence (P11802 whole entry)": "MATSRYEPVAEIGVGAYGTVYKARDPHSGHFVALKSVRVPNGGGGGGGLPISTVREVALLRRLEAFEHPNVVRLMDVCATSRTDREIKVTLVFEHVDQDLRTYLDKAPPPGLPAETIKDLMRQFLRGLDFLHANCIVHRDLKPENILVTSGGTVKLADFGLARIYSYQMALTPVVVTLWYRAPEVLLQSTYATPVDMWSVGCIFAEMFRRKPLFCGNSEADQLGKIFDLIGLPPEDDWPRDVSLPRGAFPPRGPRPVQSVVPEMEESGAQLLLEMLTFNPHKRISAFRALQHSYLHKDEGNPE"}, "[33]": {"molecular_target": "Mitogen-activated protein kinase 14 (Homo sapiens) (UniProt Q16539)"}, "[34]": {"molecular_target": "Calcium/calmodulin-dependent protein kinase type IV (Homo sapiens) (UniProt Q16566)"}, "[35]": {"molecular_target": "MAP/microtubule affinity-regulating kinase 4 (Homo sapiens) (UniProt Q96L34)"}, "[36]": {"test_system": "Serine/threonine-protein kinase B-raf (Homo sapiens), P15056 [V600E]", "sequence (P15056 whole entry V600E)": "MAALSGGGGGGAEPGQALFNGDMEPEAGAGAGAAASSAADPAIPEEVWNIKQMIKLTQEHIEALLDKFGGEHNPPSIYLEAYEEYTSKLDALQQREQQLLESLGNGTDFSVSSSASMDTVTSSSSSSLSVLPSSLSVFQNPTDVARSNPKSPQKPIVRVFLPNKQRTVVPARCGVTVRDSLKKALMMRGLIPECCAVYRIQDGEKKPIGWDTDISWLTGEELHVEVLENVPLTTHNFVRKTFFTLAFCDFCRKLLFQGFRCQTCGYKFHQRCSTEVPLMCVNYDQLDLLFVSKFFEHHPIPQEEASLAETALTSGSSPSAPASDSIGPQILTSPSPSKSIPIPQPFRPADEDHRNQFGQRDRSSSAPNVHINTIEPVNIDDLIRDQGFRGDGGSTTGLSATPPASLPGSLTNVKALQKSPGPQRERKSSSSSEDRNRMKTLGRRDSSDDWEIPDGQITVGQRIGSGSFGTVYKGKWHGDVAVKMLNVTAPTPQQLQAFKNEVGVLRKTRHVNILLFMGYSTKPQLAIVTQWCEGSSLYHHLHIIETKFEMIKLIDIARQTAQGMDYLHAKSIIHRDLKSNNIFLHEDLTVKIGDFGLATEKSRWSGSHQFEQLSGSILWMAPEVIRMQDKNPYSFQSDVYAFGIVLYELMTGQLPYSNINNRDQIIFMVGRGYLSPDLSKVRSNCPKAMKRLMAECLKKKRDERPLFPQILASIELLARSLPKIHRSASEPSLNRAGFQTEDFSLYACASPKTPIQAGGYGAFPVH"}, "[37]": {"molecular_target": "Misshapen-like kinase 1 (Homo sapiens) (UniProt Q8N4C8)"}, "[38]": {"molecular_target": "Mitogen-activated protein kinase kinase kinase 13 (Homo sapiens) (UniProt O43283)"}, "[39]": {"molecular_target": "Cyclin-dependent kinase 14 (Homo sapiens) (UniProt O94921)", "sequence (O94921 whole entry)": "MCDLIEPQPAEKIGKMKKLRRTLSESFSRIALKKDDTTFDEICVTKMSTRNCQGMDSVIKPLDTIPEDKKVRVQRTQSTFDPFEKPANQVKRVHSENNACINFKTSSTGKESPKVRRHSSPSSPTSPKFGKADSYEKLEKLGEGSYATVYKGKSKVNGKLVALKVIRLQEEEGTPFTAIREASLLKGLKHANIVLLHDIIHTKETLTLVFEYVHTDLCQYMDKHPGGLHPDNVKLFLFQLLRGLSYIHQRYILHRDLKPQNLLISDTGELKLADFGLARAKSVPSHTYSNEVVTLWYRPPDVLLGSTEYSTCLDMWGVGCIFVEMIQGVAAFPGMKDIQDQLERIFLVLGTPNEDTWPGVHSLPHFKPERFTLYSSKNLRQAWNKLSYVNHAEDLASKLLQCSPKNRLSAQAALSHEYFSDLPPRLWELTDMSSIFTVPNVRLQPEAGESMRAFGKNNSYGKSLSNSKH"}, "[40]": {"molecular_target": "Interleukin-1 receptor-associated kinase 4 (Homo sapiens) (UniProt Q9NWZ3)", "sequence (Q9NWZ3 whole entry)": "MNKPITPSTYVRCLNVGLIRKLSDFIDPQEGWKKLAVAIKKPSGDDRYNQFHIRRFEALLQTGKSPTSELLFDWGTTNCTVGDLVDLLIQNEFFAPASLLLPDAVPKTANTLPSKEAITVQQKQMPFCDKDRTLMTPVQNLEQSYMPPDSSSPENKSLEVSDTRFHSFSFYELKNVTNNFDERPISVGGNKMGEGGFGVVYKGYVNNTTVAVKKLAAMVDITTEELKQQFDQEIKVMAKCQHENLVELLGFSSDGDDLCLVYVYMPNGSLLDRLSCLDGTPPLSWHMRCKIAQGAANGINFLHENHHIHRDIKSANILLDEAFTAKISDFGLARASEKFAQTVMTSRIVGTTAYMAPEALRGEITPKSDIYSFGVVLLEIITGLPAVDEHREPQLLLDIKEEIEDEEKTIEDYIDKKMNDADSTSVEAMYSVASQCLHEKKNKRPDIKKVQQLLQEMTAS"}, "[41]": {"molecular_target": "Serine/threonine-protein kinase Nek6 (Homo sapiens) (UniProt Q9HC98)"}, "[42]": {"molecular_target": "Rho-associated protein kinase 2 (Homo sapiens) (UniProt O75116)"}, "[43]": {"molecular_target": "Glycogen synthase kinase-3 beta (Homo sapiens) (UniProt P49841)"}, "[44]": {"molecular_target": "Ribosomal protein S6 kinase alpha-2 (Homo sapiens) (UniProt Q15349)"}, "[45]": {"molecular_target": "Calcium/calmodulin-dependent protein kinase kinase 1 (Homo sapiens) (UniProt Q8N5S9)"}, "[46]": {"molecular_target": "Calcium/calmodulin-dependent protein kinase type 1D (Homo sapiens) (UniProt Q8IU85)"}}}
{"smiles": "CSc1cccnc1N1CCN(Cc2nc3ccccc3[nH]2)CC1", "note": "[A-769]", "values": [{"measurement": "residual activity", "setting": "[1]", "value": 100, "unit": "%"}, {"measurement": "residual activity", "setting": "[2]", "value": 100, "unit": "%"}, {"measurement": "residual activity", "setting": "[3]", "value": 100, "unit": "%"}, {"measurement": "residual activity", "setting": "[4]", "value": 72, "unit": "%"}, {"measurement": "residual activity", "setting": "[5]", "value": 100, "unit": "%"}, {"measurement": "residual activity", "setting": "[6]", "value": 100, "unit": "%"}, {"measurement": "residual activity", "setting": "[7]", "value": 100, "unit": "%"}, {"measurement": "residual activity", "setting": "[8]", "value": 100, "unit": "%"}, {"measurement": "residual activity", "setting": "[9]", "value": 93, "unit": "%"}, {"measurement": "residual activity", "setting": "[10]", "value": 100, "unit": "%"}, {"measurement": "residual activity", "setting": "[11]", "value": 100, "unit": "%"}, {"measurement": "residual activity", "setting": "[12]", "value": 85, "unit": "%"}, {"measurement": "residual activity", "setting": "[13]", "value": 100, "unit": "%"}, {"measurement": "residual activity", "setting": "[14]", "value": 69, "unit": "%"}, {"measurement": "residual activity", "setting": "[15]", "value": 93, "unit": "%"}, {"measurement": "residual activity", "setting": "[16]", "value": 67, "unit": "%"}, {"measurement": "residual activity", "setting": "[17]", "value": 100, "unit": "%"}, {"measurement": "residual activity", "setting": "[18]", "value": 100, "unit": "%"}, {"measurement": "residual activity", "setting": "[19]", "value": 100, "unit": "%"}, {"measurement": "residual activity", "setting": "[20]", "value": 66, "unit": "%"}, {"measurement": "residual activity", "setting": "[21]", "value": 81, "unit": "%"}, {"measurement": "residual activity", "setting": "[22]", "value": 68, "unit": "%"}, {"measurement": "residual activity", "setting": "[23]", "value": 100, "unit": "%"}, {"measurement": "residual activity", "setting": "[24]", "value": 100, "unit": "%"}, {"measurement": "residual activity", "setting": "[25]", "value": 100, "unit": "%"}, {"measurement": "residual activity", "setting": "[26]", "value": 80, "unit": "%"}, {"measurement": "residual activity", "setting": "[27]", "value": 100, "unit": "%"}, {"measurement": "residual activity", "setting": "[28]", "value": 80, "unit": "%"}, {"measurement": "residual activity", "setting": "[29]", "value": 70, "unit": "%"}, {"measurement": "residual activity", "setting": "[30]", "value": 100, "unit": "%"}, {"measurement": "residual activity", "setting": "[31]", "value": 100, "unit": "%"}, {"measurement": "residual activity", "setting": "[32]", "value": 82, "unit": "%"}, {"measurement": "residual activity", "setting": "[33]", "value": 100, "unit": "%"}, {"measurement": "residual activity", "setting": "[34]", "value": 100, "unit": "%"}, {"measurement": "residual activity", "setting": "[35]", "value": 100, "unit": "%"}, {"measurement": "residual activity", "setting": "[36]", "value": 85, "unit": "%"}, {"measurement": "residual activity", "setting": "[37]", "value": 89, "unit": "%"}, {"measurement": "residual activity", "setting": "[38]", "value": 82, "unit": "%"}, {"measurement": "residual activity", "setting": "[39]", "value": 100, "unit": "%"}, {"measurement": "residual activity", "setting": "[40]", "value": 74, "unit": "%"}, {"measurement": "residual activity", "setting": "[41]", "value": 98, "unit": "%"}, {"measurement": "residual activity", "setting": "[42]", "value": 74, "unit": "%"}, {"measurement": "residual activity", "setting": "[43]", "value": 78, "unit": "%"}, {"measurement": "residual activity", "setting": "[44]", "value": 100, "unit": "%"}, {"measurement": "residual activity", "setting": "[45]", "value": 100, "unit": "%"}, {"measurement": "residual activity", "setting": "[46]", "value": 100, "unit": "%"}]}
{"smiles": "c1ccc(N2CCN(Cc3nc4ccccc4[nH]3)CC2)nc1", "note": "[ABT-724]", "values": [{"measurement": "residual activity", "setting": "[1]", "value": 97, "unit": "%"}, {"measurement": "residual activity", "setting": "[2]", "value": 100, "unit": "%"}, {"measurement": "residual activity", "setting": "[3]", "value": 100, "unit": "%"}, {"measurement": "residual activity", "setting": "[4]", "value": 93, "unit": "%"}, {"measurement": "residual activity", "setting": "[5]", "value": 91, "unit": "%"}, {"measurement": "residual activity", "setting": "[6]", "value": 100, "unit": "%"}, {"measurement": "residual activity", "setting": "[7]", "value": 100, "unit": "%"}, {"measurement": "residual activity", "setting": "[8]", "value": 100, "unit": "%"}, {"measurement": "residual activity", "setting": "[9]", "value": 100, "unit": "%"}, {"measurement": "residual activity", "setting": "[10]", "value": 100, "unit": "%"}, {"measurement": "residual activity", "setting": "[11]", "value": 100, "unit": "%"}, {"measurement": "residual activity", "setting": "[12]", "value": 100, "unit": "%"}, {"measurement": "residual activity", "setting": "[13]", "value": 100, "unit": "%"}, {"measurement": "residual activity", "setting": "[14]", "value": 100, "unit": "%"}, {"measurement": "residual activity", "setting": "[15]", "value": 100, "unit": "%"}, {"measurement": "residual activity", "setting": "[16]", "value": 18, "unit": "%"}, {"measurement": "residual activity", "setting": "[17]", "value": 100, "unit": "%"}, {"measurement": "residual activity", "setting": "[18]", "value": 92, "unit": "%"}, {"measurement": "residual activity", "setting": "[19]", "value": 100, "unit": "%"}, {"measurement": "residual activity", "setting": "[20]", "value": 100, "unit": "%"}, {"measurement": "residual activity", "setting": "[21]", "value": 97, "unit": "%"}, {"measurement": "residual activity", "setting": "[22]", "value": 100, "unit": "%"}, {"measurement": "residual activity", "setting": "[23]", "value": 90, "unit": "%"}, {"measurement": "residual activity", "setting": "[24]", "value": 100, "unit": "%"}, {"measurement": "residual activity", "setting": "[25]", "value": 100, "unit": "%"}, {"measurement": "residual activity", "setting": "[26]", "value": 100, "unit": "%"}, {"measurement": "residual activity", "setting": "[27]", "value": 100, "unit": "%"}, {"measurement": "residual activity", "setting": "[28]", "value": 100, "unit": "%"}, {"measurement": "residual activity", "setting": "[29]", "value": 91, "unit": "%"}, {"measurement": "residual activity", "setting": "[30]", "value": 100, "unit": "%"}, {"measurement": "residual activity", "setting": "[31]", "value": 100, "unit": "%"}, {"measurement": "residual activity", "setting": "[32]", "value": 100, "unit": "%"}, {"measurement": "residual activity", "setting": "[33]", "value": 89, "unit": "%"}, {"measurement": "residual activity", "setting": "[34]", "value": 88, "unit": "%"}, {"measurement": "residual activity", "setting": "[35]", "value": 100, "unit": "%"}, {"measurement": "residual activity", "setting": "[36]", "value": 100, "unit": "%"}, {"measurement": "residual activity", "setting": "[37]", "value": 100, "unit": "%"}, {"measurement": "residual activity", "setting": "[38]", "value": 86, "unit": "%"}, {"measurement": "residual activity", "setting": "[39]", "value": 100, "unit": "%"}, {"measurement": "residual activity", "setting": "[40]", "value": 100, "unit": "%"}, {"measurement": "residual activity", "setting": "[41]", "value": 100, "unit": "%"}, {"measurement": "residual activity", "setting": "[42]", "value": 100, "unit": "%"}, {"measurement": "residual activity", "setting": "[43]", "value": 93, "unit": "%"}, {"measurement": "residual activity", "setting": "[44]", "value": 99, "unit": "%"}, {"measurement": "residual activity", "setting": "[45]", "value": 98, "unit": "%"}, {"measurement": "residual activity", "setting": "[46]", "value": 96, "unit": "%"}]}
